Test results as given in patent publication US8440724B2, “Inhibiting neurotransmitter reuptake” (Mayo Foundation for Medical Education and Research, priority 2008, dated 2013).

How the values were obtained:
[1] = target: T1, human serotonin transporter (hSERT) (Homo sapiens, UniProt P31645); assay: Radioligand binding to cloned hSERT, [3H]citalopram, HEK-293 cell membranes; conditions: Geometric Mean ± SEM; HCl salts; read-out: Equilibrium Dissociation Constant (KD) for Transporter Binding, hSERT (S)
T1 construct: expressed in transfected cells; host or cells: HEK-293, stably transfected
T1 sequence (P31645 whole entry): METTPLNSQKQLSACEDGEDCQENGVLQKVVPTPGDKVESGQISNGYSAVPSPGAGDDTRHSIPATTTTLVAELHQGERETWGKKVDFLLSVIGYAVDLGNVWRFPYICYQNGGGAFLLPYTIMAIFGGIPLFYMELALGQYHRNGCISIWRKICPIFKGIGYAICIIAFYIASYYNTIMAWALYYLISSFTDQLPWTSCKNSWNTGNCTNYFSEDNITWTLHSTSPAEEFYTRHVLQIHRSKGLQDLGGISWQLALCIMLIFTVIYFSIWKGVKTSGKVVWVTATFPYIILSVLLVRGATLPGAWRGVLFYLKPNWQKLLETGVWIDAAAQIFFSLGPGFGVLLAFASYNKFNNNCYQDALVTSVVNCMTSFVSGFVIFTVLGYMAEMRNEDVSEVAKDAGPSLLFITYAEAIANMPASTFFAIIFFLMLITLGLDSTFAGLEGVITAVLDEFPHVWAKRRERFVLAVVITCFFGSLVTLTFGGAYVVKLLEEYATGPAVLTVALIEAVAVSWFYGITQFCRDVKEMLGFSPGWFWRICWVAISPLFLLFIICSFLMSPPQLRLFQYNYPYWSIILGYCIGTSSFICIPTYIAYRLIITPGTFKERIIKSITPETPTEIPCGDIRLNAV

[2] = target: T2, human dopamine transporter (hDAT) (Homo sapiens, UniProt Q01959); assay: Radioligand binding to cloned hDAT, [3H]WIN35428, HEK-293 cell membranes; conditions: Geometric Mean ± SEM; HCl salts; read-out: Equilibrium Dissociation Constant (KD) for Transporter Binding, hDAT (D)
T2 construct: expressed in transfected cells; host or cells: HEK-293, stably transfected
T2 sequence (Q01959 whole entry): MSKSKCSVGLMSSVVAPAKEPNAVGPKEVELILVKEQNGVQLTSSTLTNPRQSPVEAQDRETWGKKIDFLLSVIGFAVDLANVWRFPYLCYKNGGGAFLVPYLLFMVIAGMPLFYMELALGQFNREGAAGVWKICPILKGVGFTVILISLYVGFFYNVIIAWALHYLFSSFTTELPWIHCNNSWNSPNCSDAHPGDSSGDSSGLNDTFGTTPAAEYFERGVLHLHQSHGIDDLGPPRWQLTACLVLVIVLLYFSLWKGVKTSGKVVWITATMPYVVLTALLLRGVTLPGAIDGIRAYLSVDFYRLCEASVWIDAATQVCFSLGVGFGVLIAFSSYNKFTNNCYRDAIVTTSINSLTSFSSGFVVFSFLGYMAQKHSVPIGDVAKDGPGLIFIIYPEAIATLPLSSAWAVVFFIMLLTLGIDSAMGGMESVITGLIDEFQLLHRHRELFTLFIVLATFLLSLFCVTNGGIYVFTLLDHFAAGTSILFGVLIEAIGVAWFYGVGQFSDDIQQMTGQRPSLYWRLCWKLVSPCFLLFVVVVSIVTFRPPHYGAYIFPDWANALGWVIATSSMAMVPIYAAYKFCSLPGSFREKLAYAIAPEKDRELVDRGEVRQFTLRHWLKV

hSERT, hNET, hDAT = assay: Human transporter binding: rank order and range of potency over the three transporters; conditions: for Potency (rank-order of potency of binding; S = hSERT, N = hNET, D = hDAT): from KD values
From the text: The program was modified to calculate the Hill coefficient (nH). Data are presented as geometric mean±S.E.M. of at least three independent experiments. One-component models and two-component models were compared using the root mean square error of each fit and the F test.

[3] = test system: human serotonin, norepinephrine and dopamine transporters; assay: Transport into cells expressing human transporters: rank order of potency, comparison with rat; type: cell-based; conditions: from Ki values; S = 5-HT, N = NE, D = DA
[4] = target: T3, rat serotonin transporter, synaptosomal preparations (Rattus norvegicus, UniProt P31652); assay: Inhibition of [3H]5-HT reuptake in rat brain synaptosomes (frontal cortex); type: biochemical; conditions: Geometric Mean ± SEM; rat brain synaptosomes; read-out: Inhibitor Constant (Ki), 5HT transport
T3 construct: from tissue; host or cells: rat frontal cortex synaptosomes (male Sprague-Dawley)
T3 sequence (P31652 whole entry): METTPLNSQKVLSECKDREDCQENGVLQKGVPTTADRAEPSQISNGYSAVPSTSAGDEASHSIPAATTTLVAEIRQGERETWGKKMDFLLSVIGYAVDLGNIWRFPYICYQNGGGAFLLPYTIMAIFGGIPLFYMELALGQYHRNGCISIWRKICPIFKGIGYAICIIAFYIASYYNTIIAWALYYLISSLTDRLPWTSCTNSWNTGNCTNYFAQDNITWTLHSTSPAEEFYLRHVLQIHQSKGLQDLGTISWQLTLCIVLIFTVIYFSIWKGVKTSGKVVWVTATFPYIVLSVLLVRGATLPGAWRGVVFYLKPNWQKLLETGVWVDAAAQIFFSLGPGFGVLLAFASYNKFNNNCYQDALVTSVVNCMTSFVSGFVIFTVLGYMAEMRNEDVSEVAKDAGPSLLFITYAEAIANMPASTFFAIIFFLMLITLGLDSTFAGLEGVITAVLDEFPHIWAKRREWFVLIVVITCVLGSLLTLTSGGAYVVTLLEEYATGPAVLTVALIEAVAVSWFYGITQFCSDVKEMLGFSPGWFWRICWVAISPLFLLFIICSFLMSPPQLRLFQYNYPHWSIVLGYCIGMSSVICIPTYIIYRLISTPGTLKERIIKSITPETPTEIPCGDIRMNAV
Description: (§1) The dissected tissues were separately homogenized in 20 volumes (cortical) or 40 volumes (striatal) of ice-cold, oxygenated HEPES buffer 0.32 M sucrose containing 11 mM glucose (pH 7.4) in a glass Potter-Elvehjem homogenizer with Teflon® pestle (8 strokes, 900 rpm). The homogenates were centrifuged at 1,000×g for 10 minutes. The resulting supernatant was decanted and further centrifuged at 20,000×g for 20 minutes at 4° C. […] The synaptosomal protein concentration was determined by using the BCA assay (Pierce Biotechnology Inc, Rockford, Ill.), according to the manufacturer's instructions. Synaptosomal protein (1.0-2.5 mg) was suspended in 1 mL oxygenated incubation buffer as defined above. Test amine compound was pre-incubated with the synaptosomal preparation for 30 minutes at 37° C. in a shaking water bath (80 oscillations/minute).

[5] = target: T4, rat norepinephrine transport, synaptosomal preparations (Rattus norvegicus, UniProt Q63380); assay: Inhibition of [3H]NE reuptake in rat brain synaptosomes (occipital cortex); type: biochemical; conditions: Geometric Mean ± SEM; rat brain synaptosomes; read-out: Inhibitor Constant (Ki), NE transport
T4 construct: from tissue; host or cells: rat occipital cortex synaptosomes (male Sprague-Dawley)
T4 sequence (Q63380 1-617): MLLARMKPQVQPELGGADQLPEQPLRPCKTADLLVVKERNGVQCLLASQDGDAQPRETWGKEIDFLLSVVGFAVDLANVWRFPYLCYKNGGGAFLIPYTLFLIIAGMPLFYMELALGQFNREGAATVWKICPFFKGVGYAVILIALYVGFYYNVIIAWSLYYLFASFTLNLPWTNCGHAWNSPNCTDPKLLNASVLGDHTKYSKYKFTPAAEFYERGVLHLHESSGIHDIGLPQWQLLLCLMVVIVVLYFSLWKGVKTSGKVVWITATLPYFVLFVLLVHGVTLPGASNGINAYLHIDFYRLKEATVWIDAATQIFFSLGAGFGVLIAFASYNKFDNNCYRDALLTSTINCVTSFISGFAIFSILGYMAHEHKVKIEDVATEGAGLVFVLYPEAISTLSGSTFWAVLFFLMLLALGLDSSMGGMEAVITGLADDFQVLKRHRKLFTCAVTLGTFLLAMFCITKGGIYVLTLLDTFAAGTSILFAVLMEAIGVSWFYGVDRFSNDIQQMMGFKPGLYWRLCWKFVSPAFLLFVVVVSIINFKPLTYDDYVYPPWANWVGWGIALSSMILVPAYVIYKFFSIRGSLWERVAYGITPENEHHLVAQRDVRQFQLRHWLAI
Description: as §1

[6] = target: T5, rat dopamine transporter, synaptosomal preparations (Rattus norvegicus, UniProt P23977); assay: Inhibition of [3H]DA reuptake in rat brain synaptosomes (striatum); type: biochemical; conditions: Geometric Mean ± SEM; rat brain synaptosomes; read-out: Inhibitor Constant (Ki), DA transport
T5 construct: and striatal tissues for transport of dopamine; from tissue; host or cells: rat striatum synaptosomes (male Sprague-Dawley)
T5 sequence (P23977 whole entry): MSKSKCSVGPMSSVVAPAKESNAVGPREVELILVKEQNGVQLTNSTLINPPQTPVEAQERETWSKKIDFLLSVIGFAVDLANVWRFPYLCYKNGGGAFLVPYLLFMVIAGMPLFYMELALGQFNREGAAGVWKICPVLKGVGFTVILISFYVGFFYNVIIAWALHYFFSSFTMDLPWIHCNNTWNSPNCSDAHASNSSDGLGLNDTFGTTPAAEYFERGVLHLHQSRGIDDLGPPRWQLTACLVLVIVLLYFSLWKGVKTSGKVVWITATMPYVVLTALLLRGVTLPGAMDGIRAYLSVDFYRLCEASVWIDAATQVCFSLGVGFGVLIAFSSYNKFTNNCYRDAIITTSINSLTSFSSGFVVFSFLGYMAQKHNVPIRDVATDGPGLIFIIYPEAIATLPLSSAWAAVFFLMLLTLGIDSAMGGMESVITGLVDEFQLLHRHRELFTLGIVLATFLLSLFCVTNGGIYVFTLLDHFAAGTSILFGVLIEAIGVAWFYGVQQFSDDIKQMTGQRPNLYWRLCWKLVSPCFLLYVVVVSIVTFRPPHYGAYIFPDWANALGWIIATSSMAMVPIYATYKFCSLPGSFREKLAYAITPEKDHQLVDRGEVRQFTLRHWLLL
Description: as §1

[7] = test system: rat 5-HT, NE and DA transport, synaptosomal preparations; assay: Rat brain synaptosomal transport: rank order of potency; type: biochemical; conditions: from Ki values; S = 5HT, N = NE, D = DA
Description: as §1

[8] = target: human norepinephrine transporter (Homo sapiens, UniProt P23975); assay: Inhibition of [3H]NE transport into HEK-293 cells expressing the human transporter; conditions: read-out: Inhibitor Constant (Ki), NE transport; Geometric Mean ± SEM; HEK-293 whole cells
Chain of human norepinephrine transporter (P23975 whole entry): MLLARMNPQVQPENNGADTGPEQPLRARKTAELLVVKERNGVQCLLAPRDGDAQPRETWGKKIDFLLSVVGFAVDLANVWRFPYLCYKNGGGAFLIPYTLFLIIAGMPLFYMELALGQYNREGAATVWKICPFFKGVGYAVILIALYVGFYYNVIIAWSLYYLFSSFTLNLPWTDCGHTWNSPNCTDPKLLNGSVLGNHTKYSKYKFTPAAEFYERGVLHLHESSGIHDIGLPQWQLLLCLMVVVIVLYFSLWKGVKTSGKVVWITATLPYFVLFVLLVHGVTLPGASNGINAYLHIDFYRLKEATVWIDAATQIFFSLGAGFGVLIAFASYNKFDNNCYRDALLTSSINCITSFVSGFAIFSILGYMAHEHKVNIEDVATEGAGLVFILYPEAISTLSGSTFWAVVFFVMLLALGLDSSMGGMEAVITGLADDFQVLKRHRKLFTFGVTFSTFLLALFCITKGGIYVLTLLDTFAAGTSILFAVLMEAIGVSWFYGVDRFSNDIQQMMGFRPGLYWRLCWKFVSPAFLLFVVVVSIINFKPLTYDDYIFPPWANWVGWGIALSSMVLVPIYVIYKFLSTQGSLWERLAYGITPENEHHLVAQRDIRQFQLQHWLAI

[9] = target: human dopamine transporter (Homo sapiens, UniProt Q01959); assay: Inhibition of [3H]DA transport into HEK-293 cells expressing the human transporter; conditions: read-out: Inhibitor Constant (Ki), DA transport; Geometric Mean ± SEM; HEK-293 whole cells
Chain of human dopamine transporter (Q01959 whole entry): as the sequence (Q01959 whole entry) above

[10] = target: human serotonin transporter (Homo sapiens, UniProt P31645); assay: Inhibition of [3H]5-HT transport into HEK-293 cells expressing the human transporter; conditions: read-out: Inhibitor Constant (Ki), 5-HT transport; Geometric Mean ± SEM; HEK-293 whole cells
Chain of human serotonin transporter (P31645 whole entry): as the sequence (P31645 whole entry) above

male C57BL/6J mice = assay: Tail suspension test (TST) in mice; type: in vivo, mouse; conditions: mice, 15 mg/kg IP, FIG. 10A
Description: When mice are suspended by their tail, there is an initial period of agitation, followed by immobility. This test identifies antidepressant compounds, which decrease the duration of immobility.
Test compounds were prepared by formulating the compounds with a pharmaceutically acceptable carrier such as saline. […] Each mouse was then subjected to the tail-suspension test (TST). Each mouse (n>3) was suspended by its tail 45 cm above the table top with the use of adhesive tape placed 1 cm from the tip of its tail. Behavior was scored every 5 seconds throughout the 6-minute test as either mobile or immobile (FIG. 10A-D) or total duration of immobility during the 6-minute test (FIGS. 10E and 10H). Mice were considered immobile only when hanging passively and completely motionless. Scores for each behavior were expressed as total counts per 6-minute session.

mice = assay: Locomotor activity in motility chamber, mice; type: in vivo, mouse; conditions: 10 minute intervals for 3 hours, FIG. 11
Male Sprague-Dawley rats = assay: Forced swim test in rats; type: in vivo, rat; conditions: 15 mg/kg IP, FIG. 12A
Description: When rats are placed in a cylinder of water from which they cannot escape, they will remain immobile in the water for the majority of the test.
Water was changed between trials, and the procedure involved a pretest and a 5-minute test separated by 24 hours. During the pretest, rats (adapted to the experimental room for no less than one hour) were placed in the cylinder for 15 minutes. Following this initial exposure, the rats were dried with towels and transferred to a “drying cage” situated under a warming lamp. […] The following day, rats were transferred to the experimental room and acclimated for at least one hour.
The rat was considered immobile when floating motionless or making only those movements necessary to keep its head above the surface of the water. Scores for each behavior (swimming or immobility) were expressed as total counts per 5-minute session. Statistical analysis was performed using ANOVA followed by the Tukey test for post-hoc comparisons.

Structure (SMILES) | Kd [1] [nM] | Kd [2] [nM] | Potency (rank-order of potency of binding; S = hSERT, N = hNET, D = hDAT) (hSERT, hNET, hDAT) | Potency Range (difference between most potent and least potent binding) (hSERT, hNET, hDAT; ratio of KD over hSERT, hNET, hDAT) [fold] | Potency (rank order, transport into cells expressing human transporters) [3] | Ki [4] [nM] | Ki [5] [nM] | Ki [6] [nM] | Potency (rank order, transport into rat brain synaptosomal preparations) [7] | Ki [8] [nM] | Ki [9] [nM] | Ki [10] [nM] | Mobility in TST (counts per 6-minute session) vs saline (male C57BL/6J mice; 30 minutes before testing) | Immobility in TST (counts per 6-minute session) vs saline (male C57BL/6J mice) | Effect on locomotor activity (mice; 15 mg/kg IP) | Immobility in forced swim test vs saline (Male Sprague-Dawley rats) | Swimming in forced swim test vs saline (Male Sprague-Dawley rats) | Effect on locomotor activity (mice; 5 mg/kg IP)
CNCC(c1ccc2ccccc2c1)C(OC)c1ccccc1 (racemic) [MCJ001-OMe-(±)-SR, (2R,3S/2S,3R)-3-methoxy-N-methyl-2-(naphthalen-2-yl)-3-phenylpropan-1-amine] | 710 ± 50 | 600 ± 100 | N = D > S | 1.2 | N > S > D | 90 ± 36 | 210 ± 30 | 1030 ± 30 | S > N > D | 20 ± 1 | 2400 | 60 ± 7 | – | – | – | – | – | –
CN(C)CCCN1c2ccccc2CCc2ccccc21 [Imipramine, reference compound] | – | – | S > N > D | – | – | – | – | – | N > S > D | – | – | – | significantly (P<0.02) increased mobility | significantly (P<0.02) reduced immobility | Only d-amphetamine caused a significant effect on locomotor activity | statistically (P<0.04) less immobility | statistically (P<0.04) more swimming behavior | –
C[C@H](N)Cc1ccccc1 [d-amphetamine, reference compound] | – | – | – | – | – | – | – | – | – | – | – | – | – | – | – | – | – | caused a significant effect on locomotor activity
